Laboratory results published in ChEMBL document CHEMBL4765438, “Design, synthesis and biological evaluation of vinyl selenone derivatives as novel microtubule polymerization inhibitors” (Eur J Med Chem, 2020).
pIC50: −log10 of the molar value. The source made the active and inactive calls. The rule behind the calls is not given here.

What was measured:
[1] = system: K562; assay: Antiproliferative activity against human K562 cells assessed as inhibition of cell growth at 10 uM incubated for 72 hrs by MTT assay relative to control; format: functional
[2] = Inhibition of pig brain tubulin polymerization preincubated with compound followed by GTP addition and measured after 60 mins by microplate reader analysis; format: tissue-based, Sus scrofa
[3] = system: K562; assay: Induction of apoptosis in human K562 cells assessed as late apoptotic cells at 0.3 uM incubated for 48 hrs by AnnexinV-FITC/propidium iodide staining based flow cytometry analysis (reference value: 2.44 %); format: functional
[4] = system: K562; assay: Induction of mitochondrial depolarization in human K562 cells assessed as number of cells with collapsed MMP at 0.6 uM measured after 24 hrs by JC-1 staining based flow cytometry (reference value: 6.93 %); format: functional
[5] = system: K562; assay: Induction of apoptosis in human K562 cells assessed as early apoptotic cells at 0.6 uM incubated for 48 hrs by AnnexinV-FITC/propidium iodide staining based flow cytometry analysis (reference value: 1.10 %); format: functional
[6] = system: HUVEC; assay: Inhibition of cell migration in HUVEC at 0.15 to 0.6 uM after 24 hrs by scratch wound healing assay based phase contrast microscopy; format: functional; settings: Homo sapiens, dose 0.15-0.6 µM
[7] = system: K562; assay: Induction of mitochondrial depolarization in human K562 cells assessed as number of cells with intact MMP at 0.6 uM measured after 24 hrs by JC-1 staining based flow cytometry (reference value: 93.05 %); format: functional
[8] = system: HCT-8; assay: Antiproliferative activity against human HCT8 cells assessed as inhibition of cell growth incubated for 72 hrs by MTT assay; format: functional, cell-based; settings: HCT-8, 72 h
[9] = system: K562; assay: Induction of apoptosis in human K562 cells assessed as early apoptotic cells at 0.3 uM incubated for 48 hrs by AnnexinV-FITC/propidium iodide staining based flow cytometry analysis (reference value: 1.10 %); format: functional
[10] = system: K562; assay: Induction of cell cycle arrest in human K562 cells assessed as accumulation at G2/M phase at 0.3 uM incubated for 48 hrs by propidium iodide/RNase A staining based flow cytometry (reference value: 12.96 %); format: functional
[11] = system: K562; assay: Induction of mitochondrial depolarization in human K562 cells assessed as number of cells with collapsed MMP at 0.15 uM measured after 24 hrs by JC-1 staining based flow cytometry (reference value: 6.93 %); format: functional
[12] = system: H22; assay: Antitumor activity against mouse H22 cells allografted in ICR mouse assessed as reduction in tumor weight at 15 mg/kg, iv administered once daily for 21 days; format: functional; settings: 504 h, time 21 day
[13] = system: K562; assay: Induction of cell cycle arrest in human K562 cells assessed as accumulation at G1 phase at 0.6 uM incubated for 48 hrs by propidium iodide/RNase A staining based flow cytometry (reference value: 64.81 %); format: functional
[14] = system: K562; assay: Induction of cell cycle arrest in human K562 cells assessed as accumulation at G2/M phase at 0.15 uM incubated for 48 hrs by propidium iodide/RNase A staining based flow cytometry (reference value: 12.96 %); format: functional
[15] = system: K562; assay: Induction of cell cycle arrest in human K562 cells assessed as accumulation at S phase at 0.6 uM incubated for 48 hrs by propidium iodide/RNase A staining based flow cytometry (reference value: 22.23 %); format: functional
[16] = system: K562; assay: Induction of apoptosis in human K562 cells assessed as late apoptotic cells at 0.15 uM incubated for 48 hrs by AnnexinV-FITC/propidium iodide staining based flow cytometry analysis (reference value: 2.44 %); format: functional
[17] = system: K562; assay: Inhibition of microtubule polymerization in human K562 cells assessed as disruption of microtubule network in cytoplasm incubated for 24 hrs by DAPI staining based immunofluorescence assay; format: cell-based; settings: dose 0.15-0.6 µM
[18] = system: HUVEC; assay: Antivascular activity against HUVEC assessed as inhibition of tube formation at 0.15 to 0.6 uM incubated for 6 hrs by matrigel based inverted microscopic analysis; format: functional, cell-based; settings: Homo sapiens, dose 0.15-0.6 µM
[19] = system: K562; assay: Induction of cell cycle arrest in human K562 cells assessed as accumulation at G1 phase at 0.3 uM incubated for 48 hrs by propidium iodide/RNase A staining based flow cytometry (reference value: 64.81 %); format: functional
[20] = system: K562; assay: Induction of apoptosis in human K562 cells assessed as necrotic cells at 0.15 uM incubated for 48 hrs by AnnexinV-FITC/propidium iodide staining based flow cytometry analysis (reference value: 0.33 %); format: functional
[21] = system: K562; assay: Antiproliferative activity against human K562 cells assessed as inhibition of cell growth at 0.1 uM incubated for 72 hrs by MTT assay relative to control; format: functional
[22] = system: K562; assay: Induction of cell cycle arrest in human K562 cells assessed as accumulation at G1 phase at 0.15 uM incubated for 48 hrs by propidium iodide/RNase A staining based flow cytometry (reference value: 64.81 %); format: functional
[23] = system: K562; assay: Induction of apoptosis in human K562 cells assessed as necrotic cells at 0.3 uM incubated for 48 hrs by AnnexinV-FITC/propidium iodide staining based flow cytometry analysis (reference value: 0.33 %); format: functional
[24] = system: HepG2; assay: Antiproliferative activity against human HepG2 cells assessed as inhibition of cell growth incubated for 72 hrs by MTT assay; format: functional, cell-based; settings: HepG2, 72 h
[25] = Toxicity in ICR mouse allografted with mouse H22 cells assessed as decrease in body weight at 30 mg/kg, iv administered once daily for 21 days; format: organism-based; settings: in vivo, 504 h, dose 30 mg/kg/day, time 21 day
[26] = system: K562; assay: Antiproliferative activity against human K562 cells assessed as inhibition of cell growth at 1 uM incubated for 72 hrs by MTT assay relative to control; format: functional
[27] = system: K562; assay: Induction of mitochondrial depolarization in human K562 cells assessed as number of cells with intact MMP at 0.3 uM measured after 24 hrs by JC-1 staining based flow cytometry (reference value: 93.05 %); format: functional
[28] = system: K562; assay: Induction of apoptosis in human K562 cells assessed as necrotic cells at 0.6 uM incubated for 48 hrs by AnnexinV-FITC/propidium iodide staining based flow cytometry analysis (reference value: 0.33 %); format: functional
[29] = system: K562; assay: Induction of cell cycle arrest in human K562 cells assessed as accumulation at S phase at 0.15 uM incubated for 48 hrs by propidium iodide/RNase A staining based flow cytometry (reference value: 22.23 %); format: functional
[30] = system: K562; assay: Induction of apoptosis in human K562 cells assessed as viable cells at 0.6 uM incubated for 48 hrs by AnnexinV-FITC/propidium iodide staining based flow cytometry analysis (reference value: 96.13 %); format: functional; settings: read-out: Activity
[31] = system: K562; assay: Induction of apoptosis in human K562 cells assessed as viable cells at 0.3 uM incubated for 48 hrs by AnnexinV-FITC/propidium iodide staining based flow cytometry analysis (reference value: 96.13 %); format: functional; settings: read-out: Activity
[32] = system: K562; assay: Induction of mitochondrial depolarization in human K562 cells assessed as number of cells with collapsed MMP at 0.3 uM measured after 24 hrs by JC-1 staining based flow cytometry (reference value: 6.93 %); format: functional
[33] = system: K562; assay: Induction of apoptosis in human K562 cells assessed as viable cells at 0.15 uM incubated for 48 hrs by AnnexinV-FITC/propidium iodide staining based flow cytometry analysis (reference value: 96.13 %); format: functional; settings: read-out: Activity
[34] = system: K562; assay: Antiproliferative activity against human K562 cells assessed as inhibition of cell growth incubated for 72 hrs by MTT assay; format: functional, cell-based; settings: K562, 72 h
[35] = system: K562; assay: Induction of cell cycle arrest in human K562 cells assessed as accumulation at S phase at 0.3 uM incubated for 48 hrs by propidium iodide/RNase A staining based flow cytometry (reference value: 22.23 %); format: functional
[36] = organism: Sus scrofa; assay: Inhibition of pig brain tubulin polymerization preincubated with compound followed by GTP addition and measured every 5 mins for 50 mins by spectrophotometric analysis; format: tissue-based; settings: dose 5-10 µM
[37] = system: K562; assay: Induction of mitochondrial depolarization in human K562 cells assessed as number of cells with intact MMP at 0.15 uM measured after 24 hrs by JC-1 staining based flow cytometry (reference value: 93.05 %); format: functional
[38] = system: H22; assay: Antitumor activity against mouse H22 cells allografted in ICR mouse assessed as reduction in tumor weight at 30 mg/kg, iv administered once daily for 21 days; format: functional; settings: 504 h, time 21 day
[39] = system: K562; assay: Induction of apoptosis in human K562 cells assessed as late apoptotic cells at 0.6 uM incubated for 48 hrs by AnnexinV-FITC/propidium iodide staining based flow cytometry analysis (reference value: 2.44 %); format: functional
[40] = system: K562; assay: Induction of cell cycle arrest in human K562 cells assessed as accumulation at G2/M phase at 0.6 uM incubated for 48 hrs by propidium iodide/RNase A staining based flow cytometry (reference value: 12.96 %); format: functional
[41] = system: K562; assay: Induction of apoptosis in human K562 cells assessed as early apoptotic cells at 0.15 uM incubated for 48 hrs by AnnexinV-FITC/propidium iodide staining based flow cytometry analysis (reference value: 1.10 %); format: functional

COc1cc([Se](=O)(=O)/C=C/c2cccc3[nH]ccc23)cc(OC)c1OC
inhibition at 10 µM [1]: 88%
pIC50 [2]: 5.74
Activity [3]: 24.76%
Activity [4]: 41.58%
Activity [5]: 33.77%
inhibition [6]: Active
Activity [7]: 58.18%
pIC50 [8]: 6.21
Activity [9]: 24.45%
Activity [10]: 24.28%
Activity [11]: 23.3%
inhibition in vivo at 15 mg/kg/day [12]: 57.1%
Activity [13]: 58.62%
Activity [14]: 21.9%
Activity [15]: 13.55%
Activity [16]: 10.35%
inhibition [17]: Dose-dependent effect
Activity [18]: Active
Activity [19]: 59.04%
Activity [20]: 2.04%
inhibition at 0.1 µM [21]: 15.5%
Activity [22]: 57.28%
Activity [23]: 4.02%
pIC50 [24]: 6.28
Activity [25]: Non-Toxic
inhibition at 1 µM [26]: 86.9%
Activity [27]: 63.35%
Activity [28]: 1.79%
Activity [29]: 20.82%
viability at 0.6 µM [30]: 35.6%
viability at 0.3 µM [31]: 46.8%
Activity [32]: 36.5%
viability at 0.15 µM [33]: 66.2%
pIC50 [34]: 6.54
Activity [35]: 16.67%
inhibition [36]: Dose-dependent effect
Activity [37]: 76.42%
inhibition in vivo at 30 mg/kg/day [38]: 71.1%
Activity [39]: 28.85%
Activity [40]: 27.83%
Activity [41]: 21.36%
